Data taken from US12686667B2, “Methods and compositions for gamma-glutamyl cycle modulation” (CANCER RESEARCH TECHNOLOGIES LLC, priority 2013, dated 2026).

What was measured:
[1] = test system: Human Melanoma cells 624; assay: Survival of nude mice inoculated with human melanoma; format: in vivo, athymic nude mice; conditions: for survival of treated group: nude mice, 400 rads, Human Melanoma cells 624, 100 mg/kg I.P. every day, six days a week, followed up for 120 days, control: ten out of ten died
Experimental: In order to examine the survival rate of athymic nude mice, inoculated intravenously with tumors, one group of the inoculated mice was treated with BA-GGCI, and a second group of the inoculated mice were treated with placebo, and the effects of treatment with BA-GGCI and placebo were compared.
Two subgroups of nude mice were examined: a control group and an experimental group. The groups included a total of twenty athymic nude mice (ten control and ten experimental), each irradiated with 400 rads of radiation and inoculated with Human Melanoma cells 624 at 3.0×10,000,000 cells per mouse. Treatment of the experimental group with racemic BA-GGCI commenced at 24 hours after the inoculation. The treatment was administered intraperitoneally (I.P.) at a dose of 100 mg/kg in 2 cc of saline every day, six days a week. The control group received placebo (2 cc saline IP), every day, six days a week.
The subjects were followed up for 120 days.

[2] = test system: lung CA CRL5891; assay: Survival of nude mice inoculated with human lung cancer; format: in vivo, athymic nude mice; conditions: for survival of treated group: nude male mice, 400 rads, lung CA CRL5891, 100 mg/kg I.P. every day, six days a week, followed up for 120 days, control: eight of ten died
Experimental: In order to examine survival of athymic nude mice inoculated intravenously with tumors, one group of the inoculated mice was treated with racemic BA-GGCI, and a second group of the inoculated mice were treated with placebo, and the effects of treatment with BA-GGCI and placebo were compared.
Two subgroups of nude male mice where examined: A control group and an experimental group. The groups included twenty athymic nude mice (ten control and ten experimental) subjects, each irradiated with 400 rads of radiation and inoculated with lung CA CRL5891 at 3×10,000,000 cells per mouse. Interventional treatment was identical to the first study as above.
The subjects were followed up for 120 days. In the Control group, eight of ten subjects died. Two of the surviving mice developed a large tumor.

[3] = test system: patients with advanced prostate cancer; assay: Compassionate use treatment of patients with advanced prostate cancer; format: in vivo, human
Experimental: Two patients with advanced prostate cancer were treated under a compassionate use program with an exemplary GGCI
Racemic BA-GGCI was administered to two human subjects who were receiving hormonal therapy for 12 and 14 months respectively.
At the onset of the GGCI treatment, both patients were bedridden with PSA (Prostate Specific Antigen) values of 340 and 180 ng/mL respectively. Both subjects presented with multiple bone metastases, and agonizing pains. The GGCI treatment protocol comprised 600 mg of GGCI capsule 3 times/day (formulated for human based on less then 5% of the LD50 toxicity on mice).

[4] = test system: human prostate tumor cell line; assay: Nude mouse model inoculated with human prostate tumor cell line; racemic, L- and D-GGCI compared; format: in vivo, nude mice
Experimental: Relative activities of the exemplary enantiomeric GGCI compounds of this invention were compared. Conjugates of benzaldehyde, salicylaldehyde and para-methoxybenzaldehyde were prepared, using either enantiomeric L- or D-penicillamine as the second reactant. The efficacy of racemic BA-GGCI, racemic SA-GGCI and racemic PMB-GGCI in the treatment of human prostate cancer was tested using the nude mouse model as in Example 2, except that the nude mice were inoculated intravenously with a human prostate tumor cell line. One group of the inoculated mice was treated with the racemic BA-GGCI and a control group of the inoculated mice was treated with placebo, and the effects of treatment with GGCI and placebo were compared. Response to treatment was monitored by changes in [PSA].
The exemplary L- and D-enantiomer BA-GGCIs were prepared in accordance with synthetic scheme of FIG. 1 using L-penicillamine.

[5] = test system: tumor; assay: Anti-cancer activity of (L) versus (D) conformation compounds in animal models and compassionate use (summary statement); format: in vivo; conditions: animal models and compassionate use treatment of human subjects
Text: However, in contrast to D-penicillamine, the L-penicillamine stereoisomer is toxic, and has not been approved as a drug. […] Moreover, when the inventors compared the relative activities, the (L) conformation compounds of this disclosure appeared to be at least 2× as active as the corresponding racemate, due to the improved stereospecificity in the enzymatic catalysis of 5-oxoproline by 5 oxoprolinase.

[6] = test system: Balb C Mice; assay: LD50 toxicity study on Balb C mice; format: in vivo
Experimental: (§1) LD50 data was measured, and exemplary gamma-glutamyl cycle inhibitor's toxicity study was conducted on Balb C Mice. A conjugate of L-penicillamine and methyl glyoxal (MGPA) was adminstered at about 4500 mg/kg ip, 5000 mg/kg oral. A conjugate of L-penicillamine and para-methoxyphenyl (PMPA) was administered at 5250 mg/kg ip, 5500 mg/kg oral; and a conjugate of L-penicillamine and citronellal (CNPA) was administered at 3250 mg/kg ip, 4500 mg/kg oral.

[7] = test system: B6C3F1 Mice; assay: LD50 determination in B6C3F1 mice; format: in vivo; set-up: 1/10 LD50: unit: mg/kg/inj
Text: Summary of LD50 Determination with a conjugate of L-penicillamine and salicylaldehyde (L-SAPA), a conjugate of L-penicillamine and benzaldehyde (L-BAPA), a conjugate of L-penicillamine and pyruvic aldehyde (L-PAPA) and a conjugate of L-penicillamine and glutaric dialdehyde (L-GAPA) in B6C3F1 Mice.

[8] = test system: CD1 mice; assay: Sub-acute (4 weeks) per os (via food) toxicity to mice; format: in vivo
Text: Sample: L-Thiazolidine-di-methyl-carboxylic acid: “L-BAPA” powder was mixed in the food (pellets).
Subjects were examined for: Sub-acute (4 weeks) per os (via food) toxicity of L-BAPA to mice.
Forty females and forty male CD1 mice, 8-10 weeks old, were housed 5 per cage (milipore filtered top cages), half of them used as controls, receiving normal mouse diet (prepared at the breeding center food plant). The other half were the experimental group and received same food composition in which 0.6 g L-Thiazolidine-di-methyl-carboxylic acid in kg food was mixed and pelleted in smaller pellet machine. This food contains 12% humidity, as compared with 6% humidity of the control diet. The animals were fed ad libitum. All animals were weighed weekly and food consumption was recorded. Possible clinical or pharmaceutical effects were checked daily. After 4 weeks, the mice were put into metabolic cages for 24 hours, their urine was collected, and then the animals were bled before sacrificing. The blood was analyzed and bone marrow smears were prepared for differential count.
The reason for putting […] in a group was to assure enough blood and urine for analysis, so all the blood clinical chemistry and urinalysis are of a pool of 2 mice each. All other results are individual results, performed randomly on one of each 2 mouse group.
The following organs were examined histologically: adrenals, brain, eye, gonads, heart, intestines (colon, caecum, duodenum, ileum, rectum) kidneys, liver, lungs, lymph nodes (mesenterial and inguinal) mammary gland, mediastinum, esophagus, pancreas, pituitary, salivary gland, skeletal muscle, skin, spinal cord, spleen, stomach, thyroid, urinary bladder and uterus. The organs were fixed in Bouin's solution and stained with hematoxylin-eosin-phosphomolybdic-acid light green stain. Weights for the adrenals, gonads, kidneys, liver and pituitary were recorded and the ratio organ weight/body weight was calculated.
The following lab studies were performed:
Hematology: Hemoglobin, hematocrit, erythrocyte count, leukocyte count.
Clinical chemistry: alkaline phosphatase, blood urea nitrogen, serum glutamic, pyruvic transaminase, blood sugar.
Urinalysis: appearance occult blood, protein Ph, bilirubin, ketones, glucose, nitrites, urobilinogen.

[9] = LD50 toxicity study on Balb C mice; format: in vivo; conditions: mouse, in vivo
Experimental: as §1

[10] = subject #1, 600 mg capsule 3 times/day
[11] = subject #2, 600 mg capsule 3 times/day
[12] = CD1 mice, 0.6 g in kg food, 4 weeks
[13] = CD1 mice, 0.6 g in kg food, 4 weeks, versus control

## CC1(C)SC(c2ccccc2)NC1C(=O)O (racemic) [racemic BA-GGCI]
[1]; Human Melanoma cells 624 nude mice, 100 mg/kg I.P., after stopping the treatment
  tumor development in treated group: Two of the subjects developed small tumors after stopping the treatment
[1]
  survival of treated group: ten out of ten subjects in the treated group were all alive
[2]; lung CA CRL5891 nude mice, 100 mg/kg I.P., 120 days
  detectable tumor in treated group: none with detectable tumor
[2]
  survival of treated group: all mice remained alive
[3]; [10]
  PSA value after treatment (dropped from 340): 18 units
  time to return to regular activities: within a month
  time until pain level subsided: ≤ 10 days
[3]; subject #1, 600 mg capsule 3 times/day, later
  PSA level after continued drop: 5 units
[3]; subject #1, before they eventually passed away
  time subject felt normal: 28 months
[3]; subject #1, multiple bone metastases at onset
  bone CAT scan: substantial remission
[3]; subject #2
  survival after initiation of the treatment (still alive, feeling well): ≥ 36 months
[3]; [11]
  PSA after treatment (180 ng/mL at onset): 16 units
  time to return to normal activities: 2-3 weeks
  time until pains subsided: 7 days
[4]; nude mice inoculated intravenously with human prostate tumor cell line, treatment as in Example 2, response monitored by [PSA]
  survival rate versus control group: significantly higher survival rate than the control group

## COc1ccc(C2N[C@@H](C(=O)O)C(C)(C)S2)cc1 (mixture of isomers) [racemic PMB-GGCI, 2-imino-3-p-methoxybenzyl-4 sulfanyl-5 dimethyl 1-carboxylic acid]
[1]
  survival of treated group: results similar to those obtained with racemic BA-GGCI
[2]
  survival of treated group: results similar to those obtained with racemic BA-GGCI

## CC1(C)SC(c2ccccc2O)NC1C(=O)O (racemic) [racemic SA-GGCI]
[1]
  survival of treated group: results similar to those obtained with racemic BA-GGCI
[2]
  survival of treated group: results similar to those obtained with racemic BA-GGCI
[3]; human patients, compared with BA-GGCI
  subjective well-being of patients: subjectively felt better than patients to whom BA-GGCI was administered
[3]; human patients, compared with BA-GGCI treatment
  overall treatment result in patients: results similar to those obtained with B-GGCI treatment

## COc1ccc(C2NC(C(=O)O)C(C)(C)S2)cc1 (stereo not drawn) [(D) stereoisomer]
[5]
  anti-tumor / anti-cancer activity: no activity

## CC(C)=CCCC(C)CC1NC(C(=O)O)C(C)(C)S1 (stereo not drawn) [CNPA]
[6]; ip
  LD50: 3250 mg/kg
[6]; oral
  LD50: 4500 mg/kg

## CC1(C)SC(c2ccccc2)N[C@H]1C(=O)O (stereo partly drawn) [L-BAPA]
[4]; (L) compound versus racemic mixture
  activity compared to the corresponding racemate: at least twice as active as the corresponding racemic mixture
[7]; Schedule Day 1, Route ip
  1/10 LD50: 88.4
  Calculated LD50 mg/kg/inj.: 884 mg/kg/inj.
[7]; Schedule Day 1, Route oral
  1/10 LD50: 355
  Calculated LD50 mg/kg/inj.: 3553 mg/kg/inj.
[7]; Schedule Day 1-5, Route ip
  1/10 LD50: 88.4
  Calculated LD50 mg/kg/inj.: 884 mg/kg/inj.
[7]; Schedule Day 1-5, Route oral
  1/10 LD50: 216
  Calculated LD50 mg/kg/inj.: 2158 mg/kg/inj.
[8]; CD1 mice, 0.6 g in kg food ad libitum, 4 weeks
  clinical symptoms, daily observation: no clinical or other effect could be observed
[8]; [12]
  Blood cell analysis and differential count: All values are within the normal range and no significant difference between the control and the experimental groups is noted
  Bone marrow differential count: All values are within the normal range and no significant difference between the control and the experimental groups is noted
[8]; CD1 mice, 0.6 g in kg food, 4 weeks, 10 male and 10 females per group, thirty-one organs
  Histopathology: No other pathological or other changes could be observed
[8]; CD1 mice, 0.6 g in kg food, 4 weeks, experimental food 12% humidity versus 6% control
  Food consumption: more L-BAPA containing experimental food was consumed by the experimental group then normal food by the control
[8]; CD1 mice, 0.6 g in kg food, 4 weeks, pool of 2 mice each
  Blood clinical chemistry and urinalysis: All values are within the normal range and no significant difference between the control and the experimental groups is noted
[8]; [13]
  Body weight: no significant difference between the experimental group and the control group
  Organ weight and ratio organ/body weight: No significant difference between the experimental and the control group is noted
[8]; mixed in the food (0.6 g in kg food), fed ad libitum for 4 weeks
  clinical or pathological changes (conclusion): does not produce any clinical or pathological changes to mice

## CC1(C)SC(CCCC=O)N[C@H]1C(=O)O (stereo partly drawn) [L-GAPA]
[7]; Schedule Day 1, Route ip
  1/10 LD50: 375
  Calculated LD50 mg/kg/inj.: 3749 mg/kg/inj.
[7]; Schedule Day 1, Route oral
  1/10 LD50: 500
  Calculated LD50 mg/kg/inj.: >5000 mg/kg/inj.
[7]; Schedule Day 1-5, Route ip
  1/10 LD50: 169
  Calculated LD50 mg/kg/inj.: 1690 mg/kg/inj.
[7]; Schedule Day 1-5, Route oral
  1/10 LD50: 500
  Calculated LD50 mg/kg/inj.: >5000 mg/kg/inj.

## CC(=O)C1N[C@@H](C(=O)O)C(C)(C)S1 (stereo partly drawn) [L-PAPA]
[7]; Schedule Day 1, Route ip
  1/10 LD50: 500
  Calculated LD50 mg/kg/inj.: >5000 mg/kg/inj.
[7]; Schedule Day 1, Route oral
  1/10 LD50: 500
  Calculated LD50 mg/kg/inj.: >5000 mg/kg/inj.
[7]; Schedule Day 1-5, Route ip
  1/10 LD50: 277
  Calculated LD50 mg/kg/inj.: 2771 mg/kg/inj.
[7]; Schedule Day 1-5, Route oral
  1/10 LD50: 500
  Calculated LD50 mg/kg/inj.: >5000 mg/kg/inj.

## CC(=O)C1NC(C(=O)O)C(C)(C)S1 (stereo not drawn) [MGPA]
[6]; ip
  LD50: about 4500 mg/kg
[6]; oral
  LD50: 5000 mg/kg

## COc1ccc(C2N[C@@H](C(=O)O)C(C)(C)S2)cc1 (stereo partly drawn) [PMPA]
[9]; 5250 mg/kg, ip
  LD50: 5250 mg/kg
[9]; 5500 mg/kg, oral
  LD50: 5500 mg/kg
[5]
  anti-tumor / anti-cancer activity: potent anti-tumor activity
